Data reported in publication PMC9910428 (Proceedings of the National Academy of Sciences of the …, 2022).
Like-named read-outs stand apart in the source and are kept apart here.

Tests used:
Sm.TRPM[D1677Y]PZQ = assay: FLIPR Ca2+ reporter assay, Sm.TRPM[D1677Y]PZQ mutant; type: cell-based, Schistosoma mansoni
Sm.TRPM[N1388H]PZQ = assay: FLIPR Ca2+ reporter assay, Sm.TRPM[N1388H]PZQ mutant; type: cell-based, Schistosoma mansoni
Sm.TRPM[D1677E]PZQ = assay: FLIPR Ca2+ reporter assay, Sm.TRPM[D1677E]PZQ mutant; type: cell-based, Schistosoma mansoni
Sm.TRPM[T1518S]PZQ = assay: FLIPR Ca2+ reporter assay, Sm.TRPM[T1518S]PZQ mutant; type: cell-based, Schistosoma mansoni
Fh.TRPMPZQ = Fh.TRPMPZQ with S1 threonine residue; cited from earlier work
Sm.TRPM[W1667A]PZQ = assay: FLIPR Ca2+ reporter assay, Sm.TRPM[W1667A]PZQ mutant; type: cell-based, Schistosoma mansoni
D. japonica = conditions: read-out: EC50 for evoking bipolarity; cited from earlier work
[1] = system: larval and adult diphyllobothriids; conditions: cited from earlier work
Ml.TRPM[E1495D]PZQ = Ml.TRPM[E1495D]PZQ (Macrostomum lignano, UniProt A0A267GS13); type: cell-based
cyclophyllidean cestodes = conditions: cited from earlier work

Chain of Ml.TRPM[E1495D]PZQ (A0A267GS13 1-1954, stated change not applied): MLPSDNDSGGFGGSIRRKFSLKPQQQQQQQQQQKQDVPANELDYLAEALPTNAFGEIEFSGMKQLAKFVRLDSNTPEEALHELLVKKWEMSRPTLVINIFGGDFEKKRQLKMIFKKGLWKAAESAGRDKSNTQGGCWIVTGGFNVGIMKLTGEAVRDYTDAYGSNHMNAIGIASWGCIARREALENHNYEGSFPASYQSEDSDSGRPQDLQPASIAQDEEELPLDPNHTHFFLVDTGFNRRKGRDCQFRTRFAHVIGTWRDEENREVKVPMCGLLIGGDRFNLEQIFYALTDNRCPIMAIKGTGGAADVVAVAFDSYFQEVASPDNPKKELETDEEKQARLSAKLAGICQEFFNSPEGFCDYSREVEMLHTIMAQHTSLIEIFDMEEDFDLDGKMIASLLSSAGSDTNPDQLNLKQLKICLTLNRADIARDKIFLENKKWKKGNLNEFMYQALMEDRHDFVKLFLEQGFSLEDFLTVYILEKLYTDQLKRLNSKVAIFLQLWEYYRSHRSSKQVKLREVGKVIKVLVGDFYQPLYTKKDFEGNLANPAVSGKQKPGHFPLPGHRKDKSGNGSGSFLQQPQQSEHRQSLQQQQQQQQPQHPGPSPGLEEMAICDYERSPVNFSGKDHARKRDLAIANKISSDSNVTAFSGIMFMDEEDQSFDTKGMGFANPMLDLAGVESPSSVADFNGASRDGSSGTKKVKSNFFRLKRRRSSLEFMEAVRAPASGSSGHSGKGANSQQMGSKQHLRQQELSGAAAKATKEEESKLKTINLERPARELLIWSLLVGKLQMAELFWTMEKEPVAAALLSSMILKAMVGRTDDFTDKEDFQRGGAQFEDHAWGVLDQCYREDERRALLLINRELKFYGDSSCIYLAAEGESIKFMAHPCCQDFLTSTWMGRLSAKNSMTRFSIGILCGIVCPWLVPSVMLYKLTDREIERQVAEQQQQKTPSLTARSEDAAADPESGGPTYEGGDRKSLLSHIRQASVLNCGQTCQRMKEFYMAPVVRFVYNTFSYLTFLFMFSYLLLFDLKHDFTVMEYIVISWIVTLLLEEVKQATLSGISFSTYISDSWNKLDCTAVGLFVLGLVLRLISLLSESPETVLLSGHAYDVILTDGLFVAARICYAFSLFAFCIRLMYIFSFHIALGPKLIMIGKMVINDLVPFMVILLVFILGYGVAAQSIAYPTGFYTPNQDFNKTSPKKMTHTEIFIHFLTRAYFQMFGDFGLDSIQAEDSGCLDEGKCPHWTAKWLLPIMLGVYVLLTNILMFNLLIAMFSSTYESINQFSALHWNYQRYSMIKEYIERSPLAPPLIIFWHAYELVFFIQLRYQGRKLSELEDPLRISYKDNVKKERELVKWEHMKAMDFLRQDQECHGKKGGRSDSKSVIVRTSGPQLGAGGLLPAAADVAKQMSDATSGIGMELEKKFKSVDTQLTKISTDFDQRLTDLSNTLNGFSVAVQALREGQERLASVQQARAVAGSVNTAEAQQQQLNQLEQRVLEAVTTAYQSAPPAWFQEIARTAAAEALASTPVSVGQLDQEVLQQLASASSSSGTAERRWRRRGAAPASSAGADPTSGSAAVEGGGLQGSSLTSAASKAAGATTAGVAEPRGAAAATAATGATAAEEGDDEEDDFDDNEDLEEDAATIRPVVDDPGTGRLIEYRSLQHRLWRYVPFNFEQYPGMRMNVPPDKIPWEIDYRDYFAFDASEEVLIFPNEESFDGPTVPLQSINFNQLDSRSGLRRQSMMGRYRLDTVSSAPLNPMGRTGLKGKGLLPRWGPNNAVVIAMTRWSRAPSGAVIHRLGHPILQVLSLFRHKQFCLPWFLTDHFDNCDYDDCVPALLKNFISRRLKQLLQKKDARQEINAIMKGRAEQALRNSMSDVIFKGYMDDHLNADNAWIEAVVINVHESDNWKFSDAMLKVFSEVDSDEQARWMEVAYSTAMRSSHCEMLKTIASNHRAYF

## O=C(C1CCCCC1)N1CC(=O)N2CCc3ccccc3C2C1 (racemic) [(±)-PZQ, praziquantel]
Sm.TRPM[D1677Y]PZQ
  sensitivity of mutant channel compared with wild type: enhanced
Sm.TRPM[N1388H]PZQ
  sensitivity compared with the wild-type channel: equivalent sensitivity
Sm.TRPM[D1677E]PZQ
  responsiveness of mutant channel: no responsiveness
Sm.TRPM[D1677E]PZQ; listed as PZQ
  responsiveness of mutant channel: ablated sensitivity
Sm.TRPM[T1518S]PZQ
  sensitivity compared with the wild-type channel: equivalent sensitivity
Fh.TRPMPZQ
  sensitivity of channel: insensitive
Sm.TRPM[W1667A]PZQ
  sensitivity of mutant channel compared with wild type: increased sensitivity
D. japonica
  EC50: 35 ± 7 µM
[1]
  concentration required to show lethality: > 320 µM
Ml.TRPM[E1495D]PZQ
  increase of sensitivity versus wild-type Ml.TRPMPZQ: ~ 2.5 fold
Ml.TRPM[E1495D]PZQ; Ml.TRPM[E1495D]PZQ, Ca2+
  EC50: 21.1 ± 3.1 µM
Cyclophyllidean cestodes
  lowest concentration with deleterious effects in vitro: 320 pM
